“Also recorded” adds a separate entry of the source.

The values that follow come from patent US12102672B2, “Immunogenic sequences from a phage tail length tape measure protein, bacteria expressing the same and their use in treating a cancer” (INSTITUT GUSTAVE ROUSSY, priority 2017, dated 2024).

For data set [1], the system named is MCA-205 sarcoma. Briefly: MCA-205 sarcoma growth in FMT-treated mice, CTX plus oral gavage with E. hirae strains. Format: in vivo. The settings on record: for CTX-mediated antitumor effects (MCA-205 tumor growth): FMT from BC patient 2 with no overt dysbiosis, oral gavage; for boost of CTX tumoricidal activity (MCA-205 tumor growth): dysbiotic FMT from BC patient, 3 cycles CTX 100 mg/kg, oral gavage 1.10^9 bacteria; for Anti-tumor effect: summary of the characteristics of the strains, with CTX, MCA205 sarcoma. The protocol: FIG. 1. Experimental setting. (A) Mice are treated with broad spectrum antibiotics (streptomycin, colistin, ampicillin and vancomycine) for 3 days before performing Fecal Microbiota Transplantation (FMT). 14 days post-FMT, MCA-205 sarcoma cell lines are inoculated in the right flank of mice (8.10^5 cells per mice). […] (B) Non FMT-treated SPF mice are used as control.
FIG. 2. Dysbiosis by FMT BC patient 1: Effectiveness of E. hirae 13144 to restore CTX-mediated antitumor effects. […] (C) Tumor growth curves of MCA-205 sarcoma in FMT-treated mice after oral gavage with strain E. hirae 13144 or NaCl as control. 2 independent experiments are depicted. (D) Overall survival of FMT-treated, MCA-205 sarcoma bearing mice treated with CTX or NaCl after oral gavage with strain E. hirae 13144. A typical survival curve is depicted for six mice per group. (E) Concatenated data of tumor sizes at day 21 post-CTX from 2 independent experiments are shown.
FIG. 3. […] (C) Tumor growth curves of MCA-205 sarcoma in FMT-treated mice after oral gavage with strain E. hirae 13144 or NaCl as control. 2 independent experiments are depicted. (D) Concatenated data of tumor sizes at day 21 post-CTX from 2 independent experiments are shown.
FIG. 4. […] Tumor growth curves of MCA-205 sarcoma in FMT-treated mice after oral gavage with strain E. hirae 13144 (A), IGR1 (B) or NaCl as control. A typical curve is depicted for six mice per group. (C) Concatenated data of tumor sizes at day 17 post-CTX from 1-2 independent experiments are shown. (D). Comparaison of various strains of E. hirae for their capacity to control tumor growth. […] EH10815 fails to work and that may be related to a mutation residing in TMP2 (see below FIG. 13B).
FIG. 5. […] (A) Tumor surface of MCA-205 sarcoma in FMT-treated mice after oral gavage with strain E. hirae 13144, IGR4, IGR7, Actinomycetes spp (Ao) and injected with 3 cycles of CTX (C) vs NaCl (N). Each dot is one mouse/tumor. (B) Tumor growth curves of MCA-205 sarcoma in SPF mice of the best group, means+SEM of tumor sizes at each time point and tumor sizes at sacrifice (C: CTX). Each dot is one mouse/tumor. Anova statistics indicating significant differences between CTX and the triple combination. (C) Tumor surface of MCA-205 sarcoma in FMT-treated mice after oral gavage with strains EH13144, IGR1, IGR11, Barnesiella or Akkermansia and injected with 3 cycles of CTX. Bacterial strains are used alive (V) or pasteurized (P). For pasteurization, bacteria are incubated 30 min at 70° C. and frozen at −80° C. at least 6 hours.
FIG. 6. […] Tumor growth curves of MCA-205 sarcoma in FMT-treated mice after oral gavage with strain E. hirae 13144 alive (A), pasteurized (B) or NaCl as control. A typical curve is depicted for six mice per group. (C) Concatenated data of tumor sizes at day 17 post-CTX from 3 independent experiments are shown.

Data set [2] deals with MCA-205 sarcoma. As to the kind of experiment: MCA205 sarcoma growth in antibiotic-treated SPF C57BL/6 mice, CTX plus oral gavage with bacteria. Format: in vivo. The settings on record: ATB 3 days, CTX 100 mg/kg x3, weekly oral gavages, FIG. 27B. The protocol:
A and C. Experimental setting. […] D-E. Ex vivo recall assays. […] Each dot represents one mouse.
A-B. Prophylactic vaccinations. […] C-D. Therapeutic settings.
Mice were treated during 3 days with an antibiotic solution (ATB) containing ampicillin (1 mg/ml), streptomycin (5 mg/ml), colistin (1 mg/ml) (Sigma-Aldrich) and vancomycin (0.25 mg/ml) added in the sterile drinking water of mice. Antibiotic activity was confirmed by cultivating fecal pellets resuspended in BHI+15% glycerol at 0.1 g/ml on COS (BD Columbia Agar with 5% Sheep Blood) plates for 48 h at 37° C. in aerobic and anaerobic conditions. In the context of bacterial transplantation experiments, mice received 3 days of ATB before undergoing bacterial transplantation the next day by oral gavage using animal feeding needles.
Syngeneic C57BL/6 mice were implanted with 0.8×10^6 MCA-205 WT sarcoma cells subcutaneously and treated intraperitoneally (i.p.) when tumors reached 20 to 35 mm^2 in size with CTX (100 mg/kg). Depending on the experimental setting, mice were injected once or 3 times at 1-week interval. Tumor size was routinely monitored every 3 days by means of a caliper.
Enterococcus hirae 13144 were originally isolated from spleens of SPF mice treated with CTX in our laboratory.

Data set [3] relates to CD8+ and CD4+ T cells. As to the kind of experiment: Flow cytometry of T cells in mLN, spleen and tumor after oral gavage with E. hirae and CTX. It is filed as in vivo, mice. The settings on record: for accumulation of CD8+ T cells in mLN and spleen: mLN after 1 week, spleen after 2 weeks. As for the experimental part: FIG. 7. […] (A) Experimental setting. […] One day post-CTX, a second oral gavage with E. hirae is performed. 72 hours post-CTX, CD4+ and CD8+ T cells are isolated from mesenteric lymph node (mLN). Percentage of CD8+(B) and CD4+(C) T cells in mLN after oral gavage with E. hirae 708 or 13144 and CTX treatment. (D) Experimental setting. […] 5 days after the first oral gavage, mice are treated with CTX. One week post-CTX, CD8+ T cells are isolated from spleen. Percentage of CD8+ T cells (E) and CCR9+CXCR3+CD8 T cells (F) in spleen after oral gavage with E. hirae 708 or 13144 and CTX treatment.

For data set [4], the system named is colon mucosae. Briefly: Colon inflammatory infiltrates (HES staining) after E. hirae gavage and CTX. It is filed as in vivo, mice. The settings on record: for inflammatory infiltrates of colon mucosae: mice without tumor, oral gavages + CTX, versus without commensals. The protocol:
FIG. 11. Effects of EH on gut inflammation and role of CD8+ T cells in this inflammation: EH-specific CTL amplified in the mLN may return into the lamina propria. (A) Experimental setting. […] Then, we performed oral gavage with E. hirae (708 or 13144) and anti-CD8 injection (200 μg per mice) every three days for a total of 4 gavages/injections. 5 days after the first oral gavage, mice are treated with CTX. One week post-CTX, colon is removed for Hematoxylin Eosin Staining (HES). (B) Extent of inflammatory infiltrates in colon of mice colonized with E. hirae and treated with anti-CD8 ablating Abs and CTX.
FIG. 18. […] (A) Experimental setting. […] Then we performed oral gavage with E. hirae (708 or 13144) every three days for a total of 4 gavages. 5 days after the first oral gavage, mice were treated with CTX. One week post-CTX, colons are removed to be embedded in PPFE for Hematoxylin, Eosin and Safran staining (HES). (B) Extent of inflammatory infiltrates in colons of mice bearing MCA205 tumors or not and colonized with E. hirae and treated with CTX. Student t′-test statistical analyses: ** p<0.01.

Data set [5] has as its system MCA205 sarcoma. The settings on record: cited from earlier work; for anti-tumor immune response: FIG. 1D of Daillère et al., 2016.

Regarding “Enterococcus hirae strain 13144 [Peptide 13144]”, in data set [1] (listed as E. hirae 13144), the “CTX-mediated antitumor effects (MCA-205 tumor growth)” value was “ameliorates the CTX-mediated antitumor effects” and the “boost of CTX tumoricidal activity (MCA-205 tumor growth)” value is “only when used alive”. Besides, in data set [1] (listed as EH13144), the “CTX-mediated antitumor effects (MCA-205 tumor growth)” value was “significant” and the “boost of CTX tumoricidal activity (MCA-205 tumor growth)” value is reported as “very effective at restoring the efficacy”. Further, the Anti-tumor effect result in data set [1] was “Yes”. For the same substance, the “restoration of antibiotic-perturbed anticancer effects of CTX (MCA205 growth)” value in data set [2] was “efficient”. In addition, in data set [3] (72 hours post-CTX), the “CD4+ T cell pool in the mLN” value is listed as “amplified”. Besides, in data set [3] (listed as EH13144), the “accumulation of CD8+CCR9+CXCR3+ T cells in spleen and tumor beds” value is given as “induce accumulation; also recorded: Sustained accumulation”; the “accumulation of CD8+ T cells in mLN and spleen” value (from here on “accumulation of CD8+ T cells”) is given as “capable of inducing the accumulation of CD8+ T cells”. Moreover, the “accumulation of CD8+ T cells” value in data set [3] (listed as E. hirae 13144) is “Increased accumulation”. For the same substance, the “colon inflammatory lesions in tumor bearers” value in data set [4] (mice bearing MCA205 sarcoma versus naive, listed as E. hirae 13144) is “markedly reduced; also recorded: prevents the gut inflammatory lesions”. For the same substance, the “inflammatory infiltrates of colon mucosae” value in data set [4] is “more infiltrated”. For the same substance, the “restoration of CTX-mediated antitumor effects” value in data set [5] (14 day-ATBs, oral gavage) was “selectively restored the CTX-mediated antitumor effects”. Besides, the anti-tumor immune response entry in data set [5] was “induces an efficient anti-tumor immune response”.

“Enterococcus hirae 708 [Peptide 708, reference compound]”: the Anti-tumor effect entry in data set [1] is listed as “No”. Further, in data set [2], the “restoration of antibiotic-perturbed anticancer effects of CTX (MCA205 growth)” value is recorded as “reduced anticancer effect”. Moreover, the “accumulation of CD8+ T cells” value in data set [3] is listed as “capable of inducing the accumulation of CD8+ T cells”. Further, the “inflammatory infiltrates of colon mucosae” value in data set [4] is “more infiltrated”. In addition, the anti-tumor immune response result in data set [5] is “fails to do so”.
